From patent publication US20230312528A1, “2-OXO-IMIDAZOLIDINE-4-CARBOXAMIDES AS NAV1.8 INHIBITORS” (Merck Sharp & Dohme LLC, priority 2020, published 2023)

Target: human NaV1.8 (Homo sapiens (Human), UniProt Q9Y5Y9)
Experiment: Nav1.8 Qube automated patch-clamp assay
Type: cell-based
Conditions: human NaV1.8 stably expressed in HEK 293 cells; automated 384-well patch-clamp; resting or inactivated state not specified
Summary of the method: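 IC50 values from Hill-equation fits of offline percent inhibition: the 1st pulse gave resting and the 10th pulse inactivated-state inhibition. Stimulus was a 10 s, 1 Hz train to 10 mV (holding −90 mV, −67 mV interpulse) applied at room temperature to HEK293 cells stably expressing human NaV1.8 (Qube).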

human NaV1.8, sequence (Q9Y5Y9 whole entry): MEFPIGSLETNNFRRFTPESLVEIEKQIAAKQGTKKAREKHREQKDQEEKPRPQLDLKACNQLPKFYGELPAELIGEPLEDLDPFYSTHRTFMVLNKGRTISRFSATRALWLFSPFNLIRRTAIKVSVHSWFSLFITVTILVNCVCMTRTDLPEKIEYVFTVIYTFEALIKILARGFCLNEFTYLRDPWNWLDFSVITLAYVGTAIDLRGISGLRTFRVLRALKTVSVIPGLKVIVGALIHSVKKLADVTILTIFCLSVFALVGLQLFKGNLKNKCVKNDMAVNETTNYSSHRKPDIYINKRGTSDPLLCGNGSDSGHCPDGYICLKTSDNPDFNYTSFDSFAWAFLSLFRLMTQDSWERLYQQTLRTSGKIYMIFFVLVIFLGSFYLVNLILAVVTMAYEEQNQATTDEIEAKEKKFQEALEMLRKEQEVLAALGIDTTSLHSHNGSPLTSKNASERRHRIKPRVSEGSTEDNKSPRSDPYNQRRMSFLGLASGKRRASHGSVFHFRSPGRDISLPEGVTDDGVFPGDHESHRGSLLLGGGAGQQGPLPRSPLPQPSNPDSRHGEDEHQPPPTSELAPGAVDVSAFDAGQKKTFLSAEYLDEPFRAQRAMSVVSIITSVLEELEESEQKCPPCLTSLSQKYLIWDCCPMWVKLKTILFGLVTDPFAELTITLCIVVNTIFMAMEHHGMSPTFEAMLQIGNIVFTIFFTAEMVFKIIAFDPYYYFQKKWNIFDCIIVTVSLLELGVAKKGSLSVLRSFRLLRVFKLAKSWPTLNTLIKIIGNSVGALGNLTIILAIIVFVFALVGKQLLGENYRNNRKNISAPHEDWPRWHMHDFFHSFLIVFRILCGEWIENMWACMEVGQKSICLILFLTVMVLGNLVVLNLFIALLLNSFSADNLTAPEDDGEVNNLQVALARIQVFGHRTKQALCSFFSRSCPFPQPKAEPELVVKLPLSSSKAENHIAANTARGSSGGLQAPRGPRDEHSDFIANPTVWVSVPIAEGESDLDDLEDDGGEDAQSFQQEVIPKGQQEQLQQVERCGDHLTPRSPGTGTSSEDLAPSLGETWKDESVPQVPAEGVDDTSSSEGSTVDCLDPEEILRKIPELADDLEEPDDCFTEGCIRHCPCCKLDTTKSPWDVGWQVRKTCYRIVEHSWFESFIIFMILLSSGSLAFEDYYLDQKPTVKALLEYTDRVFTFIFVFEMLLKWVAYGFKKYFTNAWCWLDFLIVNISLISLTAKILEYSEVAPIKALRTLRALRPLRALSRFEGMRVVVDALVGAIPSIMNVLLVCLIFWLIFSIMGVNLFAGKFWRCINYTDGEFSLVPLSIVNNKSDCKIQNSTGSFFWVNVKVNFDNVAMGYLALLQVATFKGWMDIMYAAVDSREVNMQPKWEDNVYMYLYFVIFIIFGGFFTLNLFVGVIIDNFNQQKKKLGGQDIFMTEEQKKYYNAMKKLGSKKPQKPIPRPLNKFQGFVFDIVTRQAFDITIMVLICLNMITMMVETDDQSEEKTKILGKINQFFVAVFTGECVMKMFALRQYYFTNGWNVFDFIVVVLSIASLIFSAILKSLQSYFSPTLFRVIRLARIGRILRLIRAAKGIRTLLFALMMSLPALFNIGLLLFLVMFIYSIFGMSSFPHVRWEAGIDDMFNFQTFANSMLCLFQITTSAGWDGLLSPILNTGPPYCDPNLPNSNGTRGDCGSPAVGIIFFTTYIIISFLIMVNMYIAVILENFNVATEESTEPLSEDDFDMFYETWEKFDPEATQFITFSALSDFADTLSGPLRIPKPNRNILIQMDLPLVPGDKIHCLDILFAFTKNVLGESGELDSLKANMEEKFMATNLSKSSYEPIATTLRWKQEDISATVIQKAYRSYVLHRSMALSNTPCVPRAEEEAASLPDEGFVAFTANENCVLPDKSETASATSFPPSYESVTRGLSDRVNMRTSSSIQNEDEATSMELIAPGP

Row | SMILES | IC50 [nM]
1 | O=C1NC[C@@H](C(=O)NC(c2ccc(F)c(Cl)c2F)C2CCCCN2CC(F)(F)F)N1 (single isomer, unassigned) [Example 58A, (S)-N-((R or S)-(3-chloro-2,4-difluorophenyl) ((R or S)-1-(2,2,2-trifluoroethyl)piperidin-2-yl)methyl)-2-oxoimidazolidine-4-carboxamide] | 2010
2 | O=C1NC[C@@H](C(=O)NC(c2ccc(OC(F)(F)F)cc2)c2ccc(Cl)c(C3CC3)n2)N1 (single isomer, unassigned) [Example 40A, (S)-N-((R or S)-(5-chloro-6-cyclopropylpyridin-2-yl)(4-(trifluoromethoxy)phenyl)methyl)-2-oxoimidazolidine-4-carboxamide] | 21
3 | O=C1NC[C@@H](C(=O)NC(c2ccc(OC(F)(F)F)c(Cl)c2)c2cnn(C(F)(F)F)c2)N1 (single isomer, unassigned) [Example 41B, (S)—N—((R or S)-(3-chloro-4-(trifluoromethoxy)phenyl)(1-(trifluoromethyl)-1H-pyrazol-4-yl)-l3-methyl)-2-oxoimidazolidine-4-carboxamide] | 16
4 | O=C1NC[C@@H](C(=O)NC(c2ccc(F)c(Cl)c2F)C2COC(C(F)(F)F)C2)N1 (single isomer, unassigned) [Example 79E, (S)-N-((R or S)-(3-chloro-2,4-difluoro-phenyl)((cis or trans)-5-(trifluoromethyl)tetrahydrofuran-3-yl)methyl)-2-oxoimidazolidine-4-carboxamide] | 49
5 | O=C1NC[C@@H](C(=O)NC(c2cnc(OCC(F)(F)F)cn2)c2ccc(F)c(Cl)c2F)N1 (single isomer, unassigned) [Example 51B, N—((R or S)-(3-chloro-2,4-difluorophenyl)(5-(2,2,2-trifluoroethoxy)pyrazin-2-yl)methyl)-2-oxoimidazolidine-4-carboxamide] | 166
6 | CN1CCC(C(NC(=O)[C@@H]2CNC(=O)N2)c2ccc(F)c(Cl)c2F)CC1C(F)(F)F (single isomer, unassigned) [Example 78E, (S)-N-((R or S)-(3-chloro-2,4-difluoro-phenyl)((cis or trans)-1-methyl-2-(trifluoro-methyl)piperidin-4-yl)methyl)-2-oxoimidazolidine-4-carboxamide] | 24
7 | O=C1NC[C@@H](C(=O)NC(c2ccc(Cl)cc2)c2cc(C(F)(F)F)c(F)cn2)N1 (single isomer, unassigned) [Example 59A, (S)-N-((R or S)-(4-chlorophenyl)(5-fluoro-4-(trifluoromethyl)pyridin-2-yl)methyl)-2-oxoimidazolidine-4-carboxamide] | 44
8 | O=C1NC[C@@H](C(=O)NC(c2cnc(OC(F)F)nc2)c2ccc(F)c(Cl)c2F)N1 (single isomer, unassigned) [Example 55A, (4S)—N—((R or S)-(3-chloro-2,4-difluorophenyl)(2-(difluoromethoxy)pyrimidin-5-yl)methyl)-2-oxoimidazolidine-4-carboxamide] | 79
9 | CN1CCC(C(NC(=O)[C@@H]2CNC(=O)N2)c2ccc(F)c(Cl)c2F)CC1C(F)(F)F (single isomer, unassigned) [Example 78B, (S)-N-((R or S)-(3-chloro-2,4-difluoro-phenyl)((cis or trans)-1-methyl-2-(trifluoro-methyl)piperidin-4-yl)methyl)-2-oxoimidazolidine-4-carboxamide] | 9500
10 | O=C1NC[C@@H](C(=O)NC(c2ccc(F)c(Cl)c2)c2nc3cccnc3s2)N1 (stereo partly drawn) [Example 72, (4S)-N-((3-chloro-4-fluorophenyl)(thiazolo [5,4-b]pyridin-2-yl)methyl)-2-oxoimidazolidine-4-carboxamide] | 74
11 | O=C1NC[C@@H](C(=O)NC(c2ccc(OC(F)(F)F)cc2)c2ccc(F)c(C(F)(F)F)n2)N1 (single isomer, unassigned) [Example 7B, (S)—N—((R or S)-(5-fluoro-6-(trifluoromethyl)pyridin-2-yl)(4-(trifluoromethoxy)phenyl)methyl)-2-oxo-imidazolidine-4-carboxamide] | 44
12 | O=C1NC[C@@H](C(=O)NC(CC2CCCOC2)c2ccc(F)c(Cl)c2F)N1 (single isomer, unassigned) [Example 26C, (S)-N-((R or S)-1-(3-chloro-2,4-difluorophenyl)-2-((R or S)-tetrahydro-2H-pyran-3-yl)ethyl)-2-oxoimidazolidine-4-carboxamide] | 386
13 | O=C1NC[C@@H](C(=O)NC(c2ccc(F)c(Cl)c2F)C2COC(C(F)(F)F)C2)N1 (single isomer, unassigned) [Example 79A, (S)-N-((R or S)-(3-chloro-2,4-difluoro-phenyl)((cis or trans)-5-(trifluoro-methyl)-tetrahydrofuran-3-yl)methyl)-2-oxoimidazolidine-4-carboxamide] | 39
14 | O=C1NC[C@@H](C(=O)NC(CC2CCCCC2)c2ccc(F)c(Cl)c2F)N1 (single isomer, unassigned) [Example 54A, (S)-N-((R or S)-1-(3-chloro-2,4-difluorophenyl)-2-cyclohexylethyl)-2-oxoimidazolidine-4-carboxamide] | 3.2
15 | CC(N1CC(C)(C(NC(=O)[C@@H]2CNC(=O)N2)c2ccc(F)c(Cl)c2F)C1)C(F)(F)F (single isomer, unassigned) [Example 65B, (S)—N—((R or S)-(3-chloro-2,4-difluorophenyl)(3-methyl-1-((R or S)-1,1,1-trifluoropropan-2-yl)azetidin-3-yl)methyl)-2-oxoimidazolidine-4-carboxamide] | 302
16 | O=C1NC[C@@H](C(=O)NC(c2ccc(F)c(Cl)c2)C2Cc3c(Cl)cccc32)N1 (single isomer, unassigned) [Example 70B, (S)-N-((R or S)-(3-chloro-4-fluoro-phenyl)((R or S)-2-chlorobicyclo[4.2.0]-octa-1(6),2,4-trien-7-yl)methyl)-2-oxoimidazolidine-4-carboxamide] | 9
17 | O=C1NC[C@@H](C(=O)NC(c2ccc(Cl)cc2)c2ccc3c(c2)CC3(F)F)N1 (single isomer, unassigned) [Example 90, (S)-N-((R or S)-(4-chlorophenyl)(7,7-difluorobicyclo[4.2.0]octa-1(6),2,4-trien-3-yl)methyl)-2-oxoimidazolidine-4-carboxamide] | 3.8
18 | O=C1NC[C@@H](C(=O)NC(c2ccc(F)c(Cl)c2)c2cc(C(F)(F)F)[nH]n2)N1 (single isomer, unassigned) [Example 4A, (S)—N—((R or S)-(3-chloro-4-fluorophenyl)(5-(trifluoromethyl)-1H-pyrazol-3-yl)methyl)-2-oxoimidazolidine-4-carboxamide] | 203
19 | O=C1NC[C@@H](C(=O)NC(c2cnc(OCC(F)(F)F)s2)c2ccc(F)c(Cl)c2F)N1 (single isomer, unassigned) [Example 35A, (S)-N-((R or S)-(3-chloro-2,4-difluorophenyl)(2-(2,2,2-trifluoroethoxy)thiazol-5-yl)methyl)-2-oxoimidazolidine-4-carboxamide] | 2.4
20 | N#Cc1ccc(C(NC(=O)[C@@H]2CNC(=O)N2)c2ccc(Cl)c(C(F)(F)F)c2)cc1 (single isomer, unassigned) [Example 60A, (S)-N-((R or S)-(4-chloro-3-(trifluoromethyl)-phenyl)(4-cyanophenyl)-methyl)-2-oxo-imidazolidine-4-carboxamide] | 3.1
21 | O=C1NC[C@@H](C(=O)NC(CC2CCC(C(F)(F)F)CC2)c2ccc(F)c(Cl)c2F)N1 (single isomer, unassigned) [Example 23C, (S)—N—((R or S)-1-(3-chloro-2,4-difluorophenyl)-2-((cis or trans)-4-(trifluoromethyl)cyclohexyl)ethyl)-2-oxoimidazolidine-4-carboxamide] | 62
22 | O=C1NC[C@@H](C(=O)NC(c2ccc(F)c(Cl)c2)c2ccn(CC(F)(F)F)n2)N1 (single isomer, unassigned) [Example 28A, (4S)-N-{(R or S)-(3-chloro-4-fluorophenyl)[1-(2,2,2-trifluoroethyl)-1H-pyrazol-3-yl]methyl}-2-oxoimidazolidine-4-carboxamide] | 633
23 | O=C1NC[C@@H](C(=O)NC(c2ccc(OC(F)(F)F)cc2)c2ccc(Cl)c(C3CC3)n2)N1 (single isomer, unassigned) [Example 40B, (S)-N-((R or S)-(5-chloro-6-cyclopropylpyridin-2-yl)(4-(trifluoromethoxy)phenyl)methyl)-2-oxoimidazolidine-4-carboxamide] | 3.5
24 | O=C1NC[C@@H](C(=O)NC(c2ccc(F)c(Cl)c2F)[C@H]2C[C@H](C(F)(F)F)C2)N1 (single isomer, unassigned) [Example 34B, (S)—N—((R or S)-(3-chloro-2,4-difluorophenyl)(trans-3-(trifluoromethyl)cyclobutyl)methyl)-2-oxoimidazolidine-4-carboxamide] | 76
25 | O=C1NC[C@@H](C(=O)NC(c2ccc(F)c(Cl)c2)C2Cc3ccc(F)cc32)N1 (stereo partly drawn) [Example 69, (4S)-N-((3-chloro-4-fluorophenyl)(4-fluorobicyclo[4.2.0]octa-1(6),2,4-trien-7-yl)methyl)-2-oxoimidazolidine-4-carboxamide] | 141
26 | O=C1NC[C@@H](C(=O)NC(c2ccc(F)c(Cl)c2)[C@@H]2CC[C@H]2C(F)(F)F)N1 (single isomer, unassigned) [Example 67A, (S)-N-((R or S)-(3-chloro-4-fluoro-phenyl)(trans-2-(trifluoromethyl)cyclobutyl)methyl)-2-oxoimidazolidine-4-carboxamide] | 182
27 | O=C1NC[C@@H](C(=O)NC(c2ccc(Cl)cc2)c2ccc(F)c(C(F)(F)F)c2)N1 (single isomer, unassigned) [Example 17A, (S)-N-((R or S)-(4-chlorophenyl)(4-fluoro-3-(trifluoro-methyl)phenyl)methyl)-2-oxoimidazolidine-4-carboxamide] | 0.6
